What was measured:
[1] = system: rat; assay: Forced Swim test; assay type: in vivo; conditions: 0.5 mg/kg i.p. at 24, 5 and 1 h before swim test, mean ± SE, vehicle 168±12
Experimental: The Forced Swim test (FST) is an indicator of the antidepressant-like activity of a test compound. The rat will swim before “giving up” and becoming immobile. A compound with antidepressant-like activity will decrease the time the rat is immobile.
The animals (n=90) were divided into five groups. […] In the training session, each animal was gently placed into the plastic cylinder containing 5.8 L of water set at 25±1° C. Fifteen minutes after the beginning of the training session, the animal was removed from the water. The dosing solutions were administered 15 minutes after finishing of the training.
The swim test was performed for 5 minutes in the same manner as the training session. In the swim test, the behavior of each animal was horizontally recorded using a video camera. After the swim test, animals were immediately sacrificed by inhalation of carbon dioxide.
The swim movies were handled in a blind manner to ensure that the person who measured the immobility time had no information on the treatment. An animal was judged to be immobile whenever it remained floating in the water without moving its body or forepaws except for the slight movement to maintain its posture. The total time for which the animal remained immobile was defined as the immobility time. An observer blinded to the doses measured the immobility times. The immobility time of each animal was measured to one decimal place and rounded to a whole number. Immobility time was expressed in units of seconds. In each series the means of immobility time were calculated and rounded to a whole number using. The mean and standard error (SE) for each group were calculated using the data obtained from three experimental series and rounded to a whole number. All results are represented as the mean±SE.
The data of imipramine were analyzed using t-test with a two-sided significance level of 5% (p<0.05).

[2] = system: healthy subjects; assay: REM suppression polysomnography (PSG) study of (R)-amisulpride; assay type: in vivo; conditions: human; for decrease in the time spent in REM sleep / reduction of the portion of the night spent in REM: range is 90% confidence interval
Experimental: REM suppression was the biomarker used to determine clinically-significant levels of 5-HT7 antagonism and its pharmacodynamics. REM suppression was assessed by total time in minutes spent in REM sleep and by the latency in minutes to REM sleep. […] REM suppression in human volunteers is an established translational biomarker useful to identify doses for antidepressant effects in patients.
The primary endpoint was REM sleep suppression as determined at post dose time points in the measures of latency to REM sleep, REM sleep time in minutes, and percent decrease in REM sleep time relative to total sleep time.
The results presented in Tables 6A-6C were determined from an analysis of the date based on a linear mixed model with terms for treatment, period, and treatment sequence as fixed effects, respective baseline PSG value as a continuous covariate, and treatment-by-baseline PSG interaction, and subject nested within sequence as a random effect, the Kenward and Roger correction for the degrees of freedom and an unstructured covariance structure to model the intrasubject correlation. The abbreviations used in Tables 6A-6C are as follows: PSG=polysomnography; CI=confidence interval; LS=least-squares; REM=rapid eye movement; SE=standard error.

[3] = system: freely moving rats; assay: Sleep study of (R)-amisulpride (EEG/EMG sleep architecture); assay type: in vivo, rat
Experimental: Rapid eye movement (REM) sleep time, non-rapid eye movement (NREM) sleep time, WAKE time were measured using electroencephalogram (EEG) and electromyogram (EMG) recordings. […] EEG and EMG recordings were made for 6 hr starting at the beginning of the light phase. Vehicle (0.05 N HCl/0.5% Methyl Cellulose 400 solution) or dosing suspensions were orally administered 10 min before the beginning of light phase. The volume of administration was 5 mL/kg. The order of drug treatment varied pseudo-randomly and at least 1 week was allowed between the experiments for individual animals.
A radio transmitter (TL11M2-F40-EET; Data Science International, New Brighton, Minn., USA) was implanted subcutaneously in the back of anesthetized animals, and a pair of electrode wires was stereotaxically implanted into the skull in the following locations: one in the frontoparietal (2 mm anterior to the bregma and 2 mm left to the midline), and the other in parietal (5 mm posterior to the bregma and 2 mm right to the midline) areas. The EEG electrodes were fixed using dental cement. Electromyograms (EMG) were recorded from the dorsal neck muscle. The animals, then, were allowed at least 1 week recovery in individual plastic cages before EEG/EMG recording. EEG/EMG were recorded in the home cages in a soundproof box using Dataquest A.R.T. software (Data Science International, New Brighton, Minn., USA) at a sampling rate of 500 Hz.
Sleep stage analysis was conducted off-line using Sleepsign software (KISSEI COMTEC CO., LTD, Nagano, Japan). Electrographic activity of 10-sec epochs were analyzed and each epoch was automatically assigned as WAKE, REM, and NREM based on the waveforms of EEG and EMG according to the following definitions: WAKE was defined as a condition in which EMG exceeded the individual threshold, NREM was defined as a condition in which the power of delta waves (0.5-4 Hz) exceeded the individual threshold with no EMG activity, and REM was defined as a condition in which the power of theta waves (4-8 Hz) exceeded 40% of the total power of frequencies between 0.5 and 80 Hz in the presence of no EMG activity. The duration of each REM, WAKE, and NREM periods were calculated by summing time spent in each condition during sleep every 2 hours.
All data are expressed as means±S.E.M. REM sleep, NREM sleep time, and WAKE time each of sequential 2-hr periods were compared statistically using a repeated measures two-way ANOVA, followed by post-hoc Dunnett tests.

In the case of `CCN1CCC[C@@H]1CNC(=O)c1cc(S(=O)(=O)CC)c(N)cc1OC` [(R)-amisulpride, R-4-Amino-N-[(1-ethyl-2-pyrrolidinyl)methyl]-5-(ethylsulfonyl)-2-methoxybenzamide], the immobility time [1] was 124 ± 12 s, the “decrease in REM sleep” value ([2]; 340 mg (FIG. 15C)) was “about 20 minutes” and the “decrease in REM sleep” value ([2]; 600 mg (FIG. 15C)) was “about 30 minutes”. For the same compound, the “subjects who reported adverse events” value ([2]; of the 13 subjects dosed with 600 mg) was 3 subjects, the “suppression of REM sleep” value ([2]; single dose 600 mg) was “clinically meaningful and statistically significant suppression of REM sleep” and the “vital signs and ECGs” value ([2]; single oral dose) was “normal”. For the same compound, the “Latency to REM Sleep, LS Mean Difference (SE) from placebo” value ([2]; single oral dose 340 mg, n=20) was 28.23 (9.82) Minutes, the “REM Percent, LS Mean Difference (SE) from placebo” value ([2]; single oral dose 340 mg, n=20) was −4.15 (1.09) % and the “REM Time, LS Mean Difference (SE) from placebo” value ([2]; single oral dose 340 mg, n=20) was −18.45 (4.91) Minutes. The “REM Percent, LS Mean (SE)” value ([2]; single oral dose 340 mg, n=20, placebo 25.69 (0.92)) was 21.55 (0.92) %, the “Latency to REM Sleep, LS Mean (SE)” value ([2]; single oral dose 340 mg, n=20, placebo 77.03 (9.42)) was 105.25 (9.42) Minutes and the “REM Time, LS Mean (SE)” value ([2]; single oral dose 340 mg, n=20, placebo 110.05 (4.69)) was 91.60 (4.69) Minutes. For the same compound, the “decrease in the time spent in REM sleep” value ([2]; single oral dose 340 mg) was 10 to 27 min, the “reduction of the portion of the night spent in REM” value ([2]; single oral dose 340 mg) was 2-6 percentage points and the “Latency to REM Sleep, LS Mean Difference (SE) from placebo” value ([2]; single oral dose 600 mg, n=13) was 20.30 (9.39) Minutes. The “REM Percent, LS Mean Difference (SE) from placebo” value ([2]; single oral dose 600 mg, n=13) was −6.24 (1.45) %, the “REM Time, LS Mean Difference (SE) from placebo” value ([2]; single oral dose 600 mg, n=13) was −31.39 (7.99) Minutes and the “REM Percent, LS Mean (SE)” value ([2]; single oral dose 600 mg, n=13, placebo 24.30 (1.14)) was 18.06 (1.14) %. The “Latency to REM Sleep, LS Mean (SE)” value ([2]; single oral dose 600 mg, n=13, placebo 89.06 (7.71)) was 109.35 (7.71) Minutes, the “REM Time, LS Mean (SE)” value ([2]; single oral dose 600 mg, n=13, placebo 107.98 (5.65)) was 76.59 (5.65) Minutes and the “decrease in the time spent in REM sleep” value ([2]; single oral dose 600 mg) was 18 to 45 min. For the same compound, the “reduction of the portion of the night spent in REM” value ([2]; single oral dose 600 mg) was 4-9 percentage points, the “tolerability” value ([2]; single oral dose 340 or 600 mg) was “well tolerated” and the “REM sleep duration” value ([3]; rat, 100 mg/kg p.o., 0-2 hr and 2-4 hr periods after administration) was “significant reductions”. For the same compound, the “NREM sleep time” value ([3]; rat, 10, 30, 100 mg/kg p.o.) was “no observed effect”, the “WAKE time” value ([3]; rat, 10, 30, 100 mg/kg p.o.) was “no observed effect” and the “REM sleep duration” value ([3]; rat, 10, 30, 100 mg/kg p.o., light phase) was “reduced REM sleep duration in dose-dependent manner”.
